We go through 2 compounds from the NIST ThermoML archive (doi:10.1016/j.fluid.2013.11.036).

SMILES strings stand for the structures. ± gives the expanded uncertainty stated by the source.

One may read the mass density as mass per unit of volume.

For the data set the following is noted: Liquid; for mass density: 298.15 K, 101.33 kPa, Vibrating tube method; for Normal boiling temperature: Ebulliometric method (Recirculating still).

For `CC(=O)O` [acetic acid], the mass density is on record as 1042.5 ± 0.2 kg/m3 and the Normal boiling temperature turned out to be 117.88 ± 0.2 °C.
For `O` [water], in that order: 997.8 ± 0.2 kg/m3 and 100.00 ± 0.2 °C.
